Measurements: patent publication US10670605B2, “Cysteine reactive probes and uses thereof” (The Scripps Research Institute, priority 2015, dated 2020)

Columns and labels:
Format in all cases: binding
pro-CASP8 = molecular target: T1, pro-CASP8 (Homo sapiens, UniProt Q14790, D374A/D384A); experiment: Click probe 61 labeling of pro-CASP8 and its competition; settings: 300 nM protein in MDA-MB-231 lysate; read-out: apparent IC50 for blockade of 61 labeling of pro-CASP8
T1 construct: a truncated CASP8 (residues 217-479) without the CARD domain; His6 (C); made in house; host or cells: E. coli BL21(DE3)pLysS
T1 sequence (Q14790 217-479 D374A/D384A): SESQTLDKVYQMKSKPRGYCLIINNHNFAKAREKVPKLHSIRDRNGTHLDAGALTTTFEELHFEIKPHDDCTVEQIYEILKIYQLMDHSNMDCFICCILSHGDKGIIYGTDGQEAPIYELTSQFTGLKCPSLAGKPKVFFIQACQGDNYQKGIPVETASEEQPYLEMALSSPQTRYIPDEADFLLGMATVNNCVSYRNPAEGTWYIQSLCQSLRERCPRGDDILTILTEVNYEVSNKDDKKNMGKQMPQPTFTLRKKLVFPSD

pro-CASP10 = pro-CASP10 (Homo sapiens, UniProt Q92851); experiment: Blockade of probe 61 labeling of pro-CASP10
pro-CASP10, sequence (Q92851 220-521): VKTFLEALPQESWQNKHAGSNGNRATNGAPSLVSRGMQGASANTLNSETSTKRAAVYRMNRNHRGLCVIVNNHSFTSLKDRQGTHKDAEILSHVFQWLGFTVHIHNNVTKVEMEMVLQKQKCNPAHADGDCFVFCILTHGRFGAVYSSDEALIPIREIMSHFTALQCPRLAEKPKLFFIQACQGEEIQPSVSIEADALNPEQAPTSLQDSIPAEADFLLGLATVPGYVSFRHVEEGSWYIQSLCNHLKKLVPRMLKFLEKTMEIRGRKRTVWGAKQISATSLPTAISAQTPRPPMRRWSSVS

IMPDH2 (C140) = molecular target: T2, IMPDH2 (C140) (Homo sapiens, UniProt P12268); experiment: Click probe 18 labeling of recombinant IMPDH2 and its competition; settings: for inhibition of 18 labeling of IMPDH2 by nucleotides: 500 μM of each nucleotide
T2 construct: Full length cDNAs encoding for IDH1 (Open Biosystems, Clone ID: 3880331) and IMPDH2 (Open Biosystems, Clone ID: 3447994); His6 (C); made in house; host or cells: E. coli BL21(DE3)

Row | SMILES | IC50 (pro-CASP8) [µM] | activity against CASP10 (in words) (pro-CASP10) | inhibition of 18 labeling of IMPDH2 by nucleotides (IMPDH2 (C140)) | IC50 (IMPDH2 (C140); probe 18 25 μM, ATP 15 min pre-incubation, read-out: IC50 for blockade of 18 labeling of IMPDH2) [µM]
1 | O=C(c1ccc(N2CCOCC2)cc1)N1CCC[C@H](N(C(=O)CCl)c2ccccc2)C1 [63-S] | 15 | inactive against CASP10 | – | –
2 | Nc1ncnc2c1ncn2[C@@H]1O[C@H](COP(=O)(O)O)[C@@H](O)[C@H]1O [AMP] | – | – | inhibited | –
3 | Nc1ncnc2c1ncn2[C@@H]1O[C@H](COP(=O)(O)OP(=O)(O)OP(=O)(O)O)[C@@H](O)[C@H]1O [ATP] | – | – | inhibited | 45
4 | Nc1nc2c(ncn2[C@@H]2O[C@H](COP(=O)(O)OP(=O)(O)OP(=O)(O)O)[C@@H](O)[C@H]2O)c(=O)[nH]1 [GTP] | – | – | inhibited | –
